In one data set the test system is E. coli. Description: growth experiment with extracellular p-ACA, E. coli. Format: cell-based. An excerpt:
(§1) FIGS. 31A-31F show CRISPRa efficiency can be tuned by expression level of scRNA. The optimized expression level of scRNA from pBBR1-GmR is under J23110 promoter. Higher level (BBa_J23119) or lower level (BBa_J23106) led to decrease in CRISPRa effects (FIG. 31A). CRISPRa efficiency can be tuned by scRNA composition (FIG. 31B). Truncating the spacer sequence from 20 nucleotides to 8 nucleotides led to titratable expression level by CRISPRa. Desired product p-ACA is toxic to E. coli but not P. putida (FIG. 31C). In this kinetic growth experiment, extracellular p-ACA is supplied in the media at the indicated concentrations, and cultures are grown in a plate reader with periodic density measurements. E. coli growth is severely limited above 20 mM p-ACA (dash-dotted line). Early timepoints are sometimes obscured by p-ACA precipitate, which eventually resolubilizes. […] Error bars represent standard deviation of n=3 biological replicates. […] An example of CRISPRa with 3 orthogonal scRNAs activating 3 fluorescent reporters (FIG. 31E). Multiple scRNAs construction strategy was based on Golden-Gate Assembly (FIG. 31F).
(§2) With further chemical modification or bioconversions, pACA can be converted into p-aminostyrene (pAS) which is a precursor of derivatized polystyrene, containing a functional group for further modification or functionalization with other polymers. […] Assuming that high concentration of pACA could be deleterious to the host, a growth experiment using E. coli, the standard chassis, and P. putida, known for resistance to aromatic compounds was performed. It is obvious that E. coli cannot tolerate high concentrations of pACA while P. putida growth is less affected. Thus, the solution to microbial production of pACA might be achievable with P. putida as an alternative chassis.
As originally implemented in E. coli, the p-AF production pathway consisted of the P. fluorescens papABC operon78 under tet-inducible control, along with a feedback-resistant E. coli aroG74 and aroL in their own operon, which is also tet-inducible. […] Toxic amounts of extracellular p-ACA, the result of a spike into the media, are shown in FIG. 31B, with 50% reduction of E. coli growth occurring above 10 mM extracellular.

The test system of a further data set is P. putida. Kind of data set: growth experiment with extracellular p-ACA, P. putida. Format: cell-based.
From the text: as §1, §2
In contrast to E. coli, p-ACA has little effect on P. putida growth, even up to 20 mM extracellular (close to its solubility limit). Therefore, the inventors chose to port the existing pAF pathway into P. putida to extend it to more valuable downstream aromatic products.

Another data set is described as follows: p-ACA solubility limit. Format: physicochemical. The note with it: aqueous buffer; extracellular, culture media.
In the next data set the test system is P. putida cultures. Kind of data set: consumption of extracellular p-ACA by growing P. putida cultures. The note with it: stability of accumulation in culture supernatant.
Another data set deals with LacI-Ptrc promoter. Description: inducible LacI-Ptrc-mediated activation of an mRFP reporter gene. Format: cell-based, P. putida KT2440. The note with it: 1 mM IPTG compared to the no inducer condition. The procedure: (§3) FIGS. 17A-17C show inducible promoters in P. putida (FIG. 17A). Inducible LacI-Ptrc-mediated activation of an mRFP reporter gene in P. putida KT2440 with 0-1 mM IPTG. A 13-fold activation at 1 mM IPTG was observed compared to the no inducer condition. Inducible XylS-Pm-mediated activation of an mRFP reporter gene in P. putida KT2440 with 0-5 mM m-toluic acid (FIG. 17B). […] The XylS-Pm promoter provides a better dynamic range compared to LacI-Ptrc promoter mainly due to its relatively low basal expression. mRFP reporter gene fluorescence distributions measured by flow cytometry (FIG. 17C). […] Values in FIG. 17A represent the mean ± standard deviation calculated from n = 6 independent biological replicates. Values in FIG. 17B represent the mean ± standard deviation calculated from n = 3 independent biological replicates. […]
(§4) Fluorescence measurements of reporter gene expression were carried out either by flow cytometry or plate reader. […] For flow cytometry, overnight cultures were diluted 1:50 in Dulbecco’s phosphate-buffered saline (PBS) and analyzed on a MACSQuant VYB flow cytometer with the MACSQuantify 2.8 software (Miltenyi Biotec) using the methods and instruments settings as described (Dong et al., 2018. Synthetic CRISPR-Cas gene activators for transcriptional reprogramming in bacteria. Nat Commun 9, 2489). […]
A general note: In a reporter assay the amount or activity of a reporter protein is the signal.

A further data set concerns XylS-Pm promoter. Kind of data set: inducible XylS-Pm-mediated activation of an mRFP reporter gene. Type of data set: cell-based, P. putida KT2440. The note with it: 1 mM m-toluic acid compared to the no inducer condition. How it is done: as §3, §4
Data set [1] relates to XylS-Pm promoters regulating dCas9 and/or MCP-SoxS. Description: inducible CRISPRa by XylS-Pm on CRISPRa machinery, J3-BBa_J23117-mRFP reporter (pPPC020). Type of data set: cell-based, P. putida. The note with it: for fold-activation in the presence of inducer: J306 scRNA. An excerpt: FIGS. 18A-18B show inducible CRISPRa by XylS-Pm on CRISPRa machinery. Inducible dCas9/MCP-SoxS constructs were integrated into the P. putida genome with the mini-Tn7 method (FIG. 18A). XylS-Pm promoters were introduced in place of the Sp.pCas9 promoter regulating dCas9 and/or the BBa_J23107 promoter for MCP-SoxS. Strains were transformed with a vector (pPPC020) carrying either an off-target scRNA or a J306 scRNA (FIG. 18B). The fold-activation in the presence of m-toluic acid as an inducer are 9-fold, 5-fold, and 10-fold from PPC08, PPC09, and PPC10, respectively. […] If only MCP-SoxS is under control of the inducible promoter, leaky activation is detectable. In a strain with constitutively expressed CRISPRa machinery that should not be responsive to inducer, high inducer concentrations (5 mM) also led to a modest increase in mRFP expression (1.3-fold). Values represent the mean ± standard deviation calculated from n = 3 independent biological replicates.
Fluorescence measurements of reporter gene expression were carried out either by flow cytometry or plate reader. Single colonies from LB plates were inoculated in 500 µL of EZ-RDM (Teknova) supplemented with the appropriate antibiotics and grown in 96-deep-well plates at 30° C. with shaking overnight 225 rpm. For small-molecule induction, overnight cultures were diluted 100-fold into a new culture with appropriate antibiotics and inducers, then shaken overnight at 30° C., 225 rpm. For flow cytometry, overnight cultures were diluted 1:50 in Dulbecco’s phosphate-buffered saline (PBS) and analyzed on a MACSQuant VYB flow cytometer with the MACSQuantify 2.8 software (Miltenyi Biotec) using the methods and instruments settings as described (Dong et al., 2018. Synthetic CRISPR-Cas gene activators for transcriptional reprogramming in bacteria. Nat Commun 9, 2489). For plate reader measurements, 150 µL of overnight culture were transferred into a flat, clear-bottomed black 96-well plate. OD600 and fluorescence values were measured in a Biotek Synergy HTX plate reader and analyzed using the BioTek Gen5 2.07.17 software. For mRFP1 detection, the excitation wavelength was 540 nm and emission wavelength was 600 nm. […]
To tune expression levels with CRISPRa and CRISPRi, the CRISPR system components were placed under the control of a small-molecule inducible promoter. dCas9 and/or MCP-SoxS were expressed using XylS-Pm, an inducible promoter system from the P. putida mt-2 toluene degradation pathway (Wirth et al., 2019. Accelerated genome engineering of Pseudomonas putida by I-SceI-mediated recombination and CRISPR-Cas9 counterselection. Microb Biotechnol). […] In all three inducible strains assessed, tunable gene activation as a function of inducer concentration was observed (FIG. 18B). […]

Another data set relates to XylS-Pm-dCas9. Description: tunable CRISPRa/CRISPRi in inducible-dCas9 strain (PPC08), J3-BBa_J23110-mRFP reporter. Type of data set: cell-based, P. putida. An excerpt:
FIGS. 5A-5B show CRISPRa with endogenous promoters and inducible CRISPRa/CRISPRi in P. putida. The putative promoter sequences between two open reading frames (ORFs) with 60 bp flanking sequences were incorporated into the mRFP reporter (FIG. 5A). scRNAs were introduced for all potentially activable target sites corresponding to the effective distances as tested in FIGS. 2B & 2C. Precise distances from the target site to the TSS are listed in Table 5. hAAVS1 was used as an off-target scRNA for all ten promoters. […] The inducible-dCas9 strain yielded 3-fold activation with CRISPRa or 7-fold repression with CRISPRi at 1 mM m-toluic acid compared to the no-inducer control. Fold-changes compared to the off-target control were 4-fold and 5-fold, respectively. […] Values represent the mean ± standard deviation calculated from n = 3 independent biological replicates.
Fluorescence measurements of reporter gene expression were carried out either by flow cytometry or plate reader. Single colonies from LB plates were inoculated in 500 µL of EZ-RDM (Teknova) supplemented with the appropriate antibiotics and grown in 96-deep-well plates at 30° C. with shaking overnight 225 rpm. For small-molecule induction, overnight cultures were diluted 100-fold into a new culture with appropriate antibiotics and inducers, then shaken overnight at 30° C., 225 rpm. For flow cytometry, overnight cultures were diluted 1:50 in Dulbecco’s phosphate-buffered saline (PBS) and analyzed on a MACSQuant VYB flow cytometer with the MACSQuantify 2.8 software (Miltenyi Biotec) using the methods and instruments settings as described (Dong et al., 2018. Synthetic CRISPR-Cas gene activators for transcriptional reprogramming in bacteria. Nat Commun 9, 2489). For plate reader measurements, 150 µL of overnight culture were transferred into a flat, clear-bottomed black 96-well plate. OD600 and fluorescence values were measured in a Biotek Synergy HTX plate reader and analyzed using the BioTek Gen5 2.07.17 software. For mRFP1 detection, the excitation wavelength was 540 nm and emission wavelength was 600 nm. For sfGFP detection, the excitation wavelength was 485 nm and the emission wavelength was 528 nm. Data were plotted using Prism (GraphPad).
A reporter with either an activating scRNA or a repressing sgRNA was delivered to the inducible dCas9 strain (PPC08) and 3-fold activation with CRISPRa or 7-fold repression with CRISPRi at 1 mM m-toluic acid (FIG. 5B) was observed. […] By targeting CRISPRi and CRISPRa to the same locus, we may be able to obtain lower basal expression and higher induced expression. […]

Setting [2] is: 1 mM m-toluic acid compared to the no-inducer control.
[3] abbreviates: 1 mM m-toluic acid compared to the off-target control.

pIC50: −log10 of the molar value. Values after ≈ are worked out from the molar mass of the structure shown. Where two headings read alike, the source gives them in different places. Where only a bound is given, the exact number is not on record here.

`Nc1ccc(C=CC(=O)O)cc1` [p-ACA, p-aminocinnamic acid]: the pIC50 with E. coli (Escherichia coli, read-out: 50% reduction of E. coli growth) is below 2.00. Besides, in the data set on E. coli (kinetic growth experiment, extracellular p-ACA in the media, plate reader (FIG. 31C)), the “E. coli growth severely limited above” value was “above 20 mM”. In addition, the “toxic effects in E. coli host” value with E. coli (production/accumulation in E. coli) was “toxic effects”. Also, the “toxicity in P. putida strain with the putative catabolic pathway knocked out” value with P. putida (follow-up experiments) was “lack of p-ACA toxicity”. Further, the P. putida growth entry with P. putida (kinetic growth experiment, extracellular p-ACA in the media (FIG. 31C)) is given as “relatively unaffected”. The “effect on P. putida growth” value with P. putida (up to 20 mM extracellular) was “little effect”. The solubility in “p-ACA solubility limit” was around 20 mM (≈ 3260 µg/mL). Also, the “consumption of extracellular p-ACA by growing P. putida cultures” value with P. putida cultures is given as “lack of consumption”.

As for `CC(C)S[C@@H]1O[C@H](CO)[C@H](O)[C@H](O)[C@H]1O` [IPTG], in the data set with LacI-Ptrc promoter, the “activation of mRFP reporter (LacI-Ptrc)” value stood at 13 fold.

For `Nc1ccc(C[C@H](N)C(=O)O)cc1` [p-AF, p-aminophenylalanine], in the data set on E. coli, the “toxic effects in E. coli host” value was “can safely accumulate”.

With `Cc1cccc(C(=O)O)c1` [m-toluic acid], the “activation of mRFP reporter (XylS-Pm)” value with XylS-Pm promoter was above 300 fold. In addition, in data set [1] (5 mM inducer, strain with constitutively expressed CRISPRa machinery), the “increase in mRFP expression” value is 1.3 fold. The “fold-activation in the presence of inducer” value (“fold-activation” for short) in data set [1] (strain PPC08 (inducible dCas9)) was found to be 9 fold. Also, in data set [1] (strain PPC09 (inducible MCP-SoxS)), the “fold-activation” value stood at 5 fold. The “fold-activation” value in data set [1] (strain PPC10 (dCas9 and MCP-SoxS inducible)) is 10 fold. In the data set with XylS-Pm-dCas9 (setting [2]), the “activation with CRISPRa” value is recorded as 3 fold and the “repression with CRISPRi” value came to 7 fold. Moreover, in the data set on XylS-Pm-dCas9 (setting [3]), the “fold-change with CRISPRa” value came to 4 fold and the “fold-change with CRISPRi” value came out at 5 fold.

For orientation: solubility means the concentration that dissolves in the medium under given conditions. Low values mean little dissolved substance, high ones much dissolved substance.

Source of the values: US20230340440A1, “GENETIC MANIPULATION METHOD IN BACTERIA” (University of Washington, priority 2022, published 2023).
